Data as given in US20240382612A1, “BIOACTIVE CONJUGATE, PREPARATION METHOD THEREFOR AND USE THEREOF” (priority 2017, published 2024).
Where two headings read alike, the source gives them in different places. Non-standard residues stand in square brackets, D forms with d. Residues, ends and D or L forms follow the SMILES beside them. ξ: configuration not given here. *: point of attachment. Dolaproine = CO[C@@H]([C@@H]1CCCN1)[C@@H](C)C(=O)O; Dil = CC[C@H](C)[C@H](NC)[C@@H](CC(=O)O)OC; NH(4-aminobenzyl) = Nc1ccc(CN*)cc1; NMe2Val = CC(C)[C@@H](C(=O)*)N(C)C; β3hF = N[C@H](CC(=O)O)Cc1ccccc1; ξF = NC(Cc1ccccc1)C(=O)O

Columns and labels:
[1] = test system: MDA-MB-468 (Trop-2 positive cell lines); test: In-vitro cell activity test (CCK8), MDA-MB-468; format: cell-based; conditions: Homo sapiens, 96 h; MDA-MB-468, 7500 cells/well, 4 days; read-out: EC50 (nM), killing effects of bioactive molecules on cells
Protocol: (§1) First, tumor cells MDA-MB-468 (Trop-2 positive cell lines) and HCC1806 (Trop-2 positive cell lines) were cultured. The bioactive molecules and ADC molecules disclosed in the disclosure were co-cultured with the tumor cells, then a CCK8 reagent (Dojindo Molecular Technologies, Inc., Cat: CK04, Lot:JJ744) was added. The activity of dehydrogenase in mitochondria was tested through readings (detection wave length was 450 nm) from a microplate reader (manufacturer: Molecular Devices, model: SpectraMax M2) so as to evaluate the inhibitory effect of ADC on cell proliferation.
(§2) In-vitro cell activity testing: bioactive molecules or ADCs were diluted (12 concentration gradients) with corresponding test media (containing 2% FBS). The tumor cells were trypsinized with trypsin by a conventional method, collected and counted, and then resuspended with corresponding test media (containing 2% FBS). Diluted bioactive molecules or ADCs were added to a 96-well plate, and then cells were added. 20 μL of the CCK8 reagent was added to each well and reacted for 4 h, and readings (detection wavelength was 450 nm) were taken from a microplate reader.

[2] = Experimental example 6: pharmacokinetics of BT001021 and T-030 in NCI-N87 tumor-bearing mice (T-030 in tumor and serum, LC-MS/MS); format: in vivo, Balb/c-nu mice; conditions: T-030 0.23 mg/kg, single dose; for Cmax / AUC(0-t) / MRT inf / half-life: iv, 0.23 mg/kg; for AUC(0-t): read-out: AUClast (h*ng/ml) of T-030; for MRT inf: read-out: MRTINF (h) of T-030; for half-life: read-out: T1/2 (h) of T-030 (converted)
From the text: Experimental example 6 was used to evaluate pharmacokinetics of antibody drug conjugates and bioactive molecules in vivo. Specifically, in the experiment, a tumor-bearing mice model was constructed by subcutaneous xenograft of a human gastric cancer cell line NCI-N87 to Balb/c-nu mice. After the tumor volume was 100-200 mm^3, the mice were randomly grouped, and intravenously administrated with a single dose of BT001021 and T-030. The concentration of the T-030 in tumor tissues and serum was determined to evaluate the pharmacokinetics in vivo of the antibody conjugate BT001021 and the bioactive molecule T-030 in the tumor-bearing mice.
Tumor-bearing mice (4 mice/group) with tumor volume of 100-200 mm^3 were randomly grouped (the number of groups was determined according to sample number), and the administration route was single tail intravenous injection.
NCI-N87 cells were cultured in a 1640 culture medium containing 10% heat-inactivated fetal bovine serum at 37° C. and 5% CO2. NCI—N87 cells in the exponential growth stage were collected, resuspended in PBS to a suitable concentration, and inoculated subcutaneously into Balb/c-nu mice to construct xenograft models of […]. When the mean tumor volume was about 100-200 mm^3, the mice were randomly grouped into a physiological saline group, a T-030 (0.23 mg/kg, IV, single dose) group and a BT001021 (10 mg/kg, IV, single dose) group according to the tumor size, followed by tail intravenous injection of corresponding drugs. For the T-030 group, serum and tumor tissues were collected 1 h, 2 h, 4 h, 8 h, 24 h and 72 h after administration (T-030 was not detected in the serum and tumor tissues 72 h after administration, therefore, serum and tumor tissues were not collected 168 h after administration). For BT001021 group, serum and tumor tissues were collected 1 h, 2 h, 4 h, 8 h, 24 h, 72 h and 168 h after administration to test the concentration of the T-030 in the serum and the tumors by LC-MS/MS. The administration dose of the T-030 (0.23 mg/kg) was converted to isomolar dose (10 mg/kg) of BT001021.

[3] = test system: HCC1806 (Trop-2 positive cell lines); test: In-vitro cell activity test (CCK8), HCC1806; format: cell-based; conditions: Homo sapiens, read-out: EC50 (nM), killing effects of bioactive molecules on cells
Protocol: as §1, §2

[4] = test system: human gastric cancer cell line NCI-N87; test: Experimental example 1: NCI-N87 gastric cancer subcutaneous xenograft, tumor inhibition; format: in vivo, Balb/c-nu mice; conditions: D21 after administration; IV, BIW×3W; BT001021 and Immu-132 3 mg/kg, toxins T-030 and SN-38 equimolar to ADC
Protocol: Tumor-bearing mice (6 mice/group) with tumor volume of 100-200 mm^3 were randomly grouped (the number of groups was determined according to sample number). The administration volume was 10 ml/kg, and the administration route was tail intravenous injection. The mice were administered twice a week, and tumor diameter was measured with a vernier caliper, and tumor volume was calculated based on the following calculation formula: V=0.5 a×b^2, wherein a and b stand for the long diameter and short diameter of a tumor respectively. Animal deaths were observed and recorded every day.
The tumor growth inhibition rate TGI (%) was calculated from the following formula to evaluate tumor inhibitory effect of antibody drug conjugates:
Specifically, in the experimental examples 1 and 2, tumor-bearing mice models were constructed by subcutaneous xenograft of a human gastric cancer cell line NCI-N87 or a human triple negative breast cancer cell line HCC1806. After the tumor volume was about 100 mm^3, the mice were randomly grouped, and intravenously administered with BT001021 twice a week for a total of 6 times. Changes in tumor volume and animal body weight were measured twice a week to evaluate the efficacy (tumor inhibitory effect) of the antibody drug conjugate on tumor-bearing mice.
NCI-N87 cells were cultured in a 1640 culture medium containing 10% fetal bovine serum at 37° C. and 5% CO2. NCI-N87 cells in the exponential growth stage were collected, resuspended in PBS to a suitable concentration, and inoculated subcutaneously into female Balb/c-nu mice to construct gastric cancer models. When the mean tumor volume was about 90 mm^3, the mice were randomly grouped into a physiological saline group, a BT001021 (3 mg/kg, IV, BIW×3W) group, a positive drug Immu-132 (3 mg/kg, IV, BIW×3W) group, a T030 group and a SN38 group according to the tumor size, followed by tail intravenous injection of corresponding drugs twice a week for a total of 6 times. After administration, the tumor volume and body weight of the mice were observed and measured regularly.

[5] = Balb/c-nu, mouse, in vivo, Serum
[6] = Balb/c-nu, mouse, in vivo, Tumor

CC[C@H](C)[C@@H]([C@@H](CC(=O)N1CCC[C@H]1[C@H](OC)[C@@H](C)C(=O)N[C@@H](Cc1ccccc1)C(=O)NCc1ccc(N)cc1)OC)N(C)C(=O)[C@@H](NC(=O)[C@H](C(C)C)N(C)C)C(C)C [T011] (NMe2Val-V[Dil][Dolaproine]F-{NH(4-aminobenzyl)})
EC50 [1]: 0.211 nM

CC[C@H](C)[C@@H]([C@@H](CC(=O)N1CCC[C@H]1[C@H](OC)[C@@H](C)C(=O)NC(Cc1ccccc1)C(=O)NCc1ccc(N)cc1)OC)N(C)C(=O)[C@@H](NC(=O)[C@H](C(C)C)N(C)C)C(C)C (stereo partly drawn) [T001, (2S)—N-((3R,4S,5S)-1-((2S)-2-((1R,2R)-3-((1-((4-aminobenzyl)amino)-1-oxo-3-phenylpropan-2-yl)amino)-1-methoxy-2-methyl-3-propionyl)pyrrolidin-1-yl)-3-methoxy-5-methyl-1-heptanoyl-4-yl)-2-((S)-2-(dimethylamino)-3-methylbutyrylamino)-N,3-dimethylbutyramide] (NMe2Val-V[Dil][Dolaproine][ξF]-{NH(4-aminobenzyl)})
EC50 [1]: 1.13 nM

CC[C@@]1(O)C(=O)OCc2c1cc1n(c2=O)Cc2c-1nc1ccccc1c2CCN(C(C)C)S(C)(=O)=O [T-030, (S)—N-(2-(4-ethyl-4-hydroxyl-3,14-dione-3,4,12,14-tetrahydro-1H-pyrano[3′,4′,6,7]indolizino[1,2-b]quinolin-11-yl)ethyl)-N-isopropylmethanesulfonamide]
T-030 in the serum and tumor tissues ([2]; 72 h after administration, IV): not detected | Cmax [2, 5]: 1.81 ng/mL | AUC(0-t) [2, 5]: 5.58 ng·h/mL | MRT inf [2, 5]: 1.11 h | half-life [2, 5]: 1.76 h | Cmax [2, 6]: 1.2 ng/mL | AUC(0-t) [2, 6]: 3.85 ng·h/mL | MRT inf [2, 6]: 1.52 h | half-life [2, 6]: 2.55 h | Tmax ([2]; Balb/c-nu, mouse, in vivo, Tumor, IV): 1 h | EC50 ([3]; 72 h, HCC1806, 7500 cells/well, 3 days): 6.73 nM | Tumor Volume (mm^3) (x ± S) [4]: 339.02 ± 152.80 mm^3 | Tumor growth inhibition rate (%) [4]: 21.48%

CCc1c2c(nc3ccc(O)cc13)-c1cc3c(c(=O)n1C2)COC(=O)[C@]3(O)CC [SN-38]
Tumor Volume (mm^3) (x ± S) [4]: 416.11 ± 195.15 mm^3 | Tumor growth inhibition rate (%) [4]: −2.75%

CC[C@@]1(O)C(=O)OCc2c1cc1n(c2=O)Cc2c-1nc1ccccc1c2CCN(C(C)=O)C(C)C [T-028, (S)—N-(2-(4-ethyl-4-hydroxyl-3,14-dione-3,4,12,14-tetrahydro-1H-pyrano [3′,4′,6,7]indolizino[1,2-b]quinolin-11-yl)ethyl)-N-isopropylacetamide]
EC50 ([3]; HCC1806, 72 h): 6.02 nM

CC[C@H](C)[C@@H]([C@@H](CC(=O)N1CCC[C@H]1[C@H](OC)[C@@H](C)C(=O)N[C@H](Cc1ccccc1)C(=O)NCc1ccc(N)cc1)OC)N(C)C(=O)[C@@H](NC(=O)[C@H](C(C)C)N(C)C)C(C)C [T012] (NMe2Val-V[Dil][Dolaproine][dF]-{NH(4-aminobenzyl)})
EC50 [1]: 1.62 nM

CC[C@H](C)[C@@H]([C@@H](CC(=O)N1CCC[C@H]1[C@H](OC)[C@@H](C)C(=O)NCC(=O)NCc1ccc(N)cc1)OC)N(C)C(=O)[C@@H](NC(=O)[C@H](C(C)C)N(C)C)C(C)C [T015] (NMe2Val-V[Dil][Dolaproine]G-{NH(4-aminobenzyl)})
EC50 [1]: 7.43 nM

CC[C@H](C)[C@@H]([C@@H](CC(=O)N1CCC[C@H]1[C@H](OC)[C@@H](C)C(=O)N[C@H](CC(=O)NCc1ccc(N)cc1)Cc1ccccc1)OC)N(C)C(=O)[C@@H](NC(=O)[C@H](C(C)C)N(C)C)C(C)C [T013] (NMe2Val-V[Dil][Dolaproine][β3hF]-{NH(4-aminobenzyl)})
EC50 [1]: 0.414 nM
